Test results published in publication PMC3314689, “Characterization of Cholinesterases in Plasma of Three Portuguese Native Bird Species: Application to Biomonitoring” (PLoS ONE, 2012).
Read-outs that look alike come from different tables or passages of the source.

Columns and labels:
Assay in all cases: Ellman microplate assay, Michaelis-Menten fit
Conditions in all cases: apparent, diluted plasma, 0.1 M phosphate pH 7.2, mean of 3 individuals
[1] = tested on: T1, plasma ChE / plasma BChE of M. bassanus; type: biochemical, Morus bassanus
T1 construct: native enzyme in diluted EDTA plasma, not purified
Source text: Ellman microplate assay, Michaelis-Menten fit on plasma ChE / plasma BChE of M. bassanus

[2] = tested on: T2, plasma ChE / plasma BChE of C. ciconia; type: biochemical
T2 construct: native enzyme in diluted EDTA plasma, not purified
Source text: Ellman microplate assay, Michaelis-Menten fit on plasma ChE / plasma BChE of C. ciconia

[3] = tested on: T3, plasma ChE / plasma BChE of A. cinerea; type: biochemical, Ardea cinerea
T3 construct: native enzyme in diluted EDTA plasma, not purified
Source text: Ellman microplate assay, Michaelis-Menten fit on plasma ChE / plasma BChE of A. cinerea

Molecule `CC(=O)SCC[N+](C)(C)C` [acetylthiocholine iodide] has a Km ([1]; read-out: AcSCh / Km) of 15.3 µM, a Km ([2]; read-out: AcSCh / Km) of 10.7 µM and a Km ([3]; read-out: AcSCh / Km) of 247 µM.

For `CCCC(=O)SCC[N+](C)(C)C` [S-butyrylthiocholine iodide], the Km ([1]; read-out: BuSCh / Km) was 19.4 µM, the Km ([2]; read-out: BuSCh / Km) was 4.8 µM and the Km ([3]; read-out: BuSCh / Km) was 167 µM.

`CCC(=O)SCC[N+](C)(C)C` [propionylthiocholine iodide] gave a Km ([1]; read-out: PrSCh / Km) of 21.4 µM, a Km ([2]; read-out: PrSCh / Km) of 6.1 µM and a Km ([3]; read-out: PrSCh / Km) of 150 µM.
